# Measurements as given in PMC5218480 (PLoS ONE, 2017).
# Tested on: MV-4-11 cells
# Assay: Gene expression microarray analysis (Affymetrix PrimeView) and GSEA
# Assay type: cell-based, human
# Set-up: RFU PODN (11730768_x_at) / Fold change /veh PODN (11730768_x_at) / RFU LINC00158 (11744669_a_at) / Fold change /veh LINC00158 (11744669_a_at) / RFU DUSP10 (11751237_a_at) / Fold change /veh DUSP10 (11751237_a_at) / RFU ID3 (11757404_x_at) / Fold change /veh ID3 (11757404_x_at) / RFU PLEKHG5 (11737974_s_at) / Fold change /veh PLEKHG5 (11737974_s_at) / RFU LRRC4B (11730491_at) / Fold change /veh LRRC4B (11730491_at) / RFU GIMAP4 (11747438_a_at) / Fold change /veh GIMAP4 (11747438_a_at) / RFU KRT8 (11758183_x_at) / Fold change /veh KRT8 (11758183_x_at) / RFU CNN1 (11734310_a_at) / Fold change /veh CNN1 (11734310_a_at) / RFU VPS37D (11726825_at) / Fold change /veh VPS37D (11726825_at) / RFU C10orf10 (11716522_x_at) / Fold change /veh C10orf10 (11716522_x_at) / RFU KIR2DL2 /// KIR2DL4 /// KIR2DL5A /// KIR2DL5B /// KIR2DS1 /// KIR2DS2 /// KIR2DS3 /// KIR2DS4 /// KIR3DL3 /// KIR3DL3 /// KIR3DS1 (11738374_at) / Fold change /veh KIR2DL2 /// KIR2DL4 /// KIR2DL5A /// KIR2DL5B /// KIR2DS1 /// KIR2DS2 /// KIR2DS3 /// KIR2DS4 /// KIR3DL3 /// KIR3DL3 /// KIR3DS1 (11738374_at) / RFU C1QL1 (11718748_at) / Fold change /veh C1QL1 (11718748_at) / RFU TMPRSS4 (11747572_a_at) / Fold change /veh TMPRSS4 (11747572_a_at) / RFU HAMP (11756126_x_at) / Fold change /veh HAMP (11756126_x_at) / RFU RNFT2 (11725882_a_at) / Fold change /veh RNFT2 (11725882_a_at) / RFU NR4A2 (11747474_a_at) / Fold change /veh NR4A2 (11747474_a_at) / RFU ABCC12 (11746883_a_at) / Fold change /veh ABCC12 (11746883_a_at) / RFU TMEM136 (11760407_x_at) / Fold change /veh TMEM136 (11760407_x_at) / RFU CLDN22 /// WWC2 (11732394_at) / Fold change /veh CLDN22 /// WWC2 (11732394_at) / RFU HLA-DPB1 (11760878_x_at) / Fold change /veh HLA-DPB1 (11760878_x_at) / RFU SPINT1 (11716480_a_at) / Fold change /veh SPINT1 (11716480_a_at) / RFU GAP43 (11754022_s_at) / Fold change /veh GAP43 (11754022_s_at) / RFU A4GNT (11735810_at) / Fold change /veh A4GNT (11735810_at) / RFU PRB3 (11715151_x_at) / Fold change /veh PRB3 (11715151_x_at) / RFU TUBB4B (11761932_at) / Fold change /veh TUBB4B (11761932_at) / RFU CAPN14 (11732068_a_at) / Fold change /veh CAPN14 (11732068_a_at) / RFU TMCC2 (11721928_a_at) / Fold change /veh TMCC2 (11721928_a_at) / RFU IRGQ (11745062_a_at) / Fold change /veh IRGQ (11745062_a_at) / RFU FAM174B (11720279_a_at) / Fold change /veh FAM174B (11720279_a_at) / RFU TMPRSS4 (11748680_a_at) / Fold change /veh TMPRSS4 (11748680_a_at) / RFU FAM212B (11763350_a_at) / Fold change /veh FAM212B (11763350_a_at) / RFU PLEKHG5 (11743358_a_at) / Fold change /veh PLEKHG5 (11743358_a_at) / RFU ZSCAN30 (11745921_a_at) / Fold change /veh ZSCAN30 (11745921_a_at) / RFU CMKLR1 (11741424_a_at) / Fold change /veh CMKLR1 (11741424_a_at) / RFU LOC101060620 /// MAPK8IP1 (11723275_at) / Fold change /veh LOC101060620 /// MAPK8IP1 (11723275_at) / RFU SPTSSB (11747773_x_at) / Fold change /veh SPTSSB (11747773_x_at) / RFU PRSS12 (11739890_at) / Fold change /veh PRSS12 (11739890_at) / RFU BIN1 (11741810_x_at) / Fold change /veh BIN1 (11741810_x_at) / RFU WNT11 (11732464_a_at) / Fold change /veh WNT11 (11732464_a_at) / RFU C10orf10 (11716521_a_at) / Fold change /veh C10orf10 (11716521_a_at) / RFU C5orf56 (11738089_at) / Fold change /veh C5orf56 (11738089_at) / RFU CYB561 (11721691_x_at) / Fold change /veh CYB561 (11721691_x_at) / RFU ANKRD19P (11752326_a_at) / Fold change /veh ANKRD19P (11752326_a_at) / RFU OR2T12 /// OR2T33 /// OR2T8 (11738714_s_at) / Fold change /veh OR2T12 /// OR2T33 /// OR2T8 (11738714_s_at) / RFU VCAN (11748164_a_at) / Fold change /veh VCAN (11748164_a_at) / RFU JSRP1 (11732532_at) / Fold change /veh JSRP1 (11732532_at) / RFU KRTAP10-11 (11738290_x_at) / Fold change /veh KRTAP10-11 (11738290_x_at) / RFU MYO3A (11730013_a_at) / Fold change /veh MYO3A (11730013_a_at) / RFU EBF3 (11725865_a_at) / Fold change /veh EBF3 (11725865_a_at) / RFU CAMK2N1 (11719241_x_at) / Fold change /veh CAMK2N1 (11719241_x_at) / RFU C5orf56 (11738088_a_at) / Fold change /veh C5orf56 (11738088_a_at) / RFU OLFML3 (11715873_a_at) / Fold change /veh OLFML3 (11715873_a_at) / RFU LOC100653217 /// NTM (11731650_a_at) / Fold change /veh LOC100653217 /// NTM (11731650_a_at) / RFU MAPK11 (11762145_a_at) / Fold change /veh MAPK11 (11762145_a_at) / RFU FIZ1 (11724087_x_at) / Fold change /veh FIZ1 (11724087_x_at) / RFU OASL (11726364_x_at) / Fold change /veh OASL (11726364_x_at) / RFU SOX15 (11748057_x_at) / Fold change /veh SOX15 (11748057_x_at) / RFU CD79A (11719716_a_at) / Fold change /veh CD79A (11719716_a_at) / RFU HIST1H1D (11736915_at) / Fold change /veh HIST1H1D (11736915_at) / RFU CASKIN2 (11723855_a_at) / Fold change /veh CASKIN2 (11723855_a_at) / RFU LOC730098 (11760151_x_at) / Fold change /veh LOC730098 (11760151_x_at) / RFU OR4N2 (11742367_at) / Fold change /veh OR4N2 (11742367_at) / RFU PRRT2 (11749266_a_at) / Fold change /veh PRRT2 (11749266_a_at) / RFU SNX32 (11753110_a_at) / Fold change /veh SNX32 (11753110_a_at) / RFU CDHR5 (11726645_a_at) / Fold change /veh CDHR5 (11726645_a_at) / RFU RCAN1 (11760418_a_at) / Fold change /veh RCAN1 (11760418_a_at) / RFU FAM167A (11723789_a_at) / Fold change /veh FAM167A (11723789_a_at) / RFU FAM26E (11764081_at) / Fold change /veh FAM26E (11764081_at) / RFU ISYNA1 (11749810_s_at) / Fold change /veh ISYNA1 (11749810_s_at) / RFU ACY1 (11761880_at) / Fold change /veh ACY1 (11761880_at) / RFU 11764098_at / Fold change /veh 11764098_at / RFU SAMD14 (11745864_x_at) / Fold change /veh SAMD14 (11745864_x_at) / RFU NPB (11741838_a_at) / Fold change /veh NPB (11741838_a_at) / RFU TMPRSS6 (11731388_a_at) / Fold change /veh TMPRSS6 (11731388_a_at) / RFU KRTAP10-2 (11738614_at) / Fold change /veh KRTAP10-2 (11738614_at) / RFU ARHGAP8 /// PRR5-ARHGAP8 (11727945_x_at) / Fold change /veh ARHGAP8 /// PRR5-ARHGAP8 (11727945_x_at) / RFU KRTAP5-7 /// NADSYN1 (11734609_at) / Fold change /veh KRTAP5-7 /// NADSYN1 (11734609_at) / RFU RASL12 (11751679_a_at) / Fold change /veh RASL12 (11751679_a_at) / RFU CDKN2B (11736163_a_at) / Fold change /veh CDKN2B (11736163_a_at) / RFU PRF1 (11729649_at) / Fold change /veh PRF1 (11729649_at) / RFU, ZNF638 /// ZNF638-IT1 / Fold change vs veh, ZNF638 /// ZNF638-IT1 / RFU, PANK3 / Fold change vs veh, PANK3 / RFU, SH3YL1 / Fold change vs veh, SH3YL1 / RFU, ZEB2 / Fold change vs veh, ZEB2 / RFU, NRIP1 / Fold change vs veh, NRIP1 / RFU, PTTG1IP / Fold change vs veh, PTTG1IP / RFU, CAPN2 / Fold change vs veh, CAPN2 / RFU, MED14 / Fold change vs veh, MED14 / RFU, SNORA58 / Fold change vs veh, SNORA58 / RFU, C1orf63 / Fold change vs veh, C1orf63 / RFU, LRRFIP1 / Fold change vs veh, LRRFIP1 / RFU, NDUFAF7 / Fold change vs veh, NDUFAF7 / RFU, SLC12A2 / Fold change vs veh, SLC12A2 / RFU, IBTK / Fold change vs veh, IBTK / RFU, ESF1 / Fold change vs veh, ESF1 / Fold change vs veh, TMEM50B / RFU, TAOK1 / Fold change vs veh, TAOK1 / RFU, ACBD3 / Fold change vs veh, ACBD3 / RFU, TMA16 / Fold change vs veh, TMA16 / RFU, RWDD3 / Fold change vs veh, RWDD3 / RFU, BCAT1 / Fold change vs veh, BCAT1 / RFU, EDEM3 / Fold change vs veh, EDEM3 / RFU, TMEM33 / Fold change vs veh, TMEM33 / RFU, WDR75 / Fold change vs veh, WDR75 / RFU, AHCTF1 / Fold change vs veh, AHCTF1 / RFU, TFRC / Fold change vs veh, TFRC / RFU, ZDHHC17 / Fold change vs veh, ZDHHC17 / RFU, NOM1 / Fold change vs veh, NOM1 / RFU, ARL8B / Fold change vs veh, ARL8B / RFU, ZBTB11 / Fold change vs veh, ZBTB11 / RFU, TAMM41 / Fold change vs veh, TAMM41 / RFU, KIAA1704 /// LOC100996395 / Fold change vs veh, KIAA1704 /// LOC100996395 / RFU, ING1 / Fold change vs veh, ING1 / RFU, TRMT61B / Fold change vs veh, TRMT61B / RFU, FUBP3 / Fold change vs veh, FUBP3 / RFU, TP53 / Fold change vs veh, TP53 / RFU, TNKS2 / Fold change vs veh, TNKS2 / RFU, ZFP14 / Fold change vs veh, ZFP14 / RFU, ACTR2 / Fold change vs veh, ACTR2 / RFU, PPP3R1 / Fold change vs veh, PPP3R1 / RFU, PIK3R1 / Fold change vs veh, PIK3R1 / RFU, HNRNPA1 / Fold change vs veh, HNRNPA1 / RFU, RNF170 / Fold change vs veh, RNF170 / RFU, ZNF28 / Fold change vs veh, ZNF28 / RFU, RNGTT / Fold change vs veh, RNGTT / RFU, OGT / Fold change vs veh, OGT / RFU, BRD1 / Fold change vs veh, BRD1 / RFU, MARS / Fold change vs veh, MARS / RFU, ZNF655 / Fold change vs veh, ZNF655 / RFU, FAHD1 / Fold change vs veh, FAHD1 / RFU, BDP1 / Fold change vs veh, BDP1 / RFU, LRRCC1 / Fold change vs veh, LRRCC1 / RFU, ARID1A / Fold change vs veh, ARID1A / RFU, ZNF146 / Fold change vs veh, ZNF146 / RFU, ZNF330 / Fold change vs veh, ZNF330 / RFU, GPN3 / Fold change vs veh, GPN3 / RFU, C9orf123 / Fold change vs veh, C9orf123 / RFU, N4BP2L2 / Fold change vs veh, N4BP2L2 / RFU, ARFIP1 / Fold change vs veh, ARFIP1 / RFU, FAM179B / Fold change vs veh, FAM179B / RFU, BCL10 / Fold change vs veh, BCL10 / RFU, UHRF1BP1L / Fold change vs veh, UHRF1BP1L / RFU, BET1 / Fold change vs veh, BET1 / RFU, CNOT2 / Fold change vs veh, CNOT2 / RFU, ZNF268 / Fold change vs veh, ZNF268 / Fold change vs veh, ZNF507 / RFU, DGCR2 / Fold change vs veh, DGCR2 / RFU, WDSUB1 / Fold change vs veh, WDSUB1 / Fold change vs veh, HSP90B1 /// MIR3652 / RFU, ADSS / Fold change vs veh, ADSS / RFU, GK / Fold change vs veh, GK / RFU, ZNF148 / Fold change vs veh, ZNF148 / RFU, TAF9 / Fold change vs veh, TAF9 / RFU, SLC1A5 / Fold change vs veh, SLC1A5 / RFU, SLMO2 / Fold change vs veh, SLMO2 / RFU, ABCC4 / Fold change vs veh, ABCC4 / RFU, LOC101060439 /// RAP1B / Fold change vs veh, LOC101060439 /// RAP1B / RFU, RFX7 / Fold change vs veh, RFX7 / RFU, GTPBP10 / Fold change vs veh, GTPBP10 / RFU, CNEP1R1 / Fold change vs veh, CNEP1R1 / RFU, BIVM-ERCC5 /// ERCC5 / Fold change vs veh, BIVM-ERCC5 /// ERCC5 / RFU, ILF3 / Fold change vs veh, ILF3 / RFU 11762660_at / Fold change /veh 11762660_at / RFU VCAN (11757783_s_at) / Fold change /veh VCAN (11757783_s_at) / RFU DDX43 (11728927_at) / Fold change /veh DDX43 (11728927_at) / RFU KRT8 (11758188_x_at) / Fold change /veh KRT8 (11758188_x_at) / RFU NKD1 (11759106_at) / Fold change /veh NKD1 (11759106_at) / RFU SRD5A1 (11742802_a_at) / Fold change /veh SRD5A1 (11742802_a_at) / RFU TPSAB1 /// TPSB2 (11721975_s_at) / Fold change /veh TPSAB1 /// TPSB2 (11721975_s_at) / RFU GSTM3 (11746129_a_at) / Fold change /veh GSTM3 (11746129_a_at) / RFU IL23R (11737362_x_at) / Fold change /veh IL23R (11737362_x_at) / RFU TMEM51 (11727254_a_at) / Fold change /veh TMEM51 (11727254_a_at) / RFU PIWIL2 (11732686_x_at) / Fold change /veh PIWIL2 (11732686_x_at) / RFU ORM1 (11744905_x_at) / Fold change /veh ORM1 (11744905_x_at) / RFU CCDC152 (11743942_at) / Fold change /veh CCDC152 (11743942_at) / RFU ECM1 (11717891_a_at) / Fold change /veh ECM1 (11717891_a_at) / RFU IL23R (11748794_a_at) / Fold change /veh IL23R (11748794_a_at) / RFU TNFAIP8L3 (11732012_x_at) / Fold change /veh TNFAIP8L3 (11732012_x_at) / RFU MBOAT4 (11741988_at) / Fold change /veh MBOAT4 (11741988_at) / RFU 11764193_at / Fold change /veh 11764193_at / RFU TMEM53 (11763286_at) / Fold change /veh TMEM53 (11763286_at) / RFU MAGEB2 (11727129_at) / Fold change /veh MAGEB2 (11727129_at) / RFU TMEM200A (11744735_a_at) / Fold change /veh TMEM200A (11744735_a_at) / RFU CCDC152 (11751479_a_at) / Fold change /veh CCDC152 (11751479_a_at) / RFU FAM211A (11726209_a_at) / Fold change /veh FAM211A (11726209_a_at) / RFU RGS16 (11746705_a_at) / Fold change /veh RGS16 (11746705_a_at) / RFU VCAN (11755009_s_at) / Fold change /veh VCAN (11755009_s_at) / RFU RHOB (11743442_s_at) / Fold change /veh RHOB (11743442_s_at) / RFU RGS16 (11720943_a_at) / Fold change /veh RGS16 (11720943_a_at) / RFU RGS16 (11720944_at) / Fold change /veh RGS16 (11720944_at) / RFU, VPS4B / Fold change vs veh, VPS4B / RFU, CREB1 / Fold change vs veh, CREB1 / RFU, DNAJC13 / Fold change vs veh, DNAJC13 / RFU, GNAQ / Fold change vs veh, GNAQ / RFU, CDK5R1 / Fold change vs veh, CDK5R1 / RFU, ZRANB3 / Fold change vs veh, ZRANB3 / RFU, CUL4A / Fold change vs veh, CUL4A / RFU, CCNY / Fold change vs veh, CCNY / RFU, UFL1 / Fold change vs veh, UFL1 / RFU, COG3 / Fold change vs veh, COG3 / RFU, DIAPH2 / Fold change vs veh, DIAPH2 / RFU, SKA2 / Fold change vs veh, SKA2 / RFU, AFF3 / Fold change vs veh, AFF3 / RFU, LMF1 / Fold change vs veh, LMF1 / RFU, IPO11 / Fold change vs veh, IPO11 / RFU, DFFB / Fold change vs veh, DFFB / RFU, FOXP1 / Fold change vs veh, FOXP1 / RFU, CARD8 / Fold change vs veh, CARD8 / RFU, STRN3 / Fold change vs veh, STRN3 / RFU, ADK / Fold change vs veh, ADK / RFU, RASSF2 / Fold change vs veh, RASSF2 / RFU, WIPF1 / Fold change vs veh, WIPF1 / RFU, LARP1B / Fold change vs veh, LARP1B / RFU, RASA1 / Fold change vs veh, RASA1 / RFU, RB1 / Fold change vs veh, RB1 / RFU, PPFIA1 / Fold change vs veh, PPFIA1 / RFU, MAT2A / Fold change vs veh, MAT2A / RFU, CCT5 / Fold change vs veh, CCT5 / RFU, WDR92 / Fold change vs veh, WDR92 / RFU, CUX1 / Fold change vs veh, CUX1 / RFU, TTC7A / Fold change vs veh, TTC7A / RFU, TMEM135 / Fold change vs veh, TMEM135 / RFU, DEPTOR / Fold change vs veh, DEPTOR / RFU, CPM / Fold change vs veh, CPM / RFU, DNAJB6 / Fold change vs veh, DNAJB6 / RFU, CACNA2D3 / Fold change vs veh, CACNA2D3 / RFU, DTX4 / Fold change vs veh, DTX4 / RFU, TFCP2 / Fold change vs veh, TFCP2 / RFU, GMCL1 /// GMCL1P1 / Fold change vs veh, GMCL1 /// GMCL1P1 / RFU, AEBP2 / Fold change vs veh, AEBP2 / RFU, SNHG1 /// SNORD22 /// SNORD25 /// SNORD26 /// SNORD27 /// SNORD28 /// SNORD29 /// SNORD31 / Fold change vs veh, SNHG1 /// SNORD22 /// SNORD25 /// SNORD26 /// SNORD27 /// SNORD28 /// SNORD29 /// SNORD31 / Fold change (Aza/veh), C12orf56 (ProbeSet 11735607_a_at) / Fold change (ACY-1035/veh), C12orf56 (ProbeSet 11735607_a_at) / Fold change (Aza/veh), FGFR1OP (ProbeSet 11751329_s_at) / Fold change (ACY-1035/veh), FGFR1OP (ProbeSet 11751329_s_at) / Fold change (Aza/veh), VPS36 (ProbeSet 11739960_a_at) / Fold change (ACY-1035/veh), VPS36 (ProbeSet 11739960_a_at) / RFU SYPL1 (11715823_x_at) / Fold change /veh SYPL1 (11715823_x_at) / RFU IGFBP7 (11715501_s_at) / Fold change /veh IGFBP7 (11715501_s_at) / RFU REEP3 (11722064_at) / Fold change /veh REEP3 (11722064_at) / RFU IGLL1 (11728026_x_at) / Fold change /veh IGLL1 (11728026_x_at): dose or concentration left out as unconfirmed
# Details: MV-4-11 cells, 48 hours
smiles,measurement,value
Nc1ncn([C@@H]2O[C@H](CO)[C@@H](O)[C@H]2O)c(=O)n1 [azacitidine],Fold change /veh KRT8 (11758183_x_at),1.18
